Laboratory results reported in ChEMBL document CHEMBL1145987, “Structural determinants of selective thyromimetics” (J Med Chem, 2003).

Key:
[1] = biological target: T1, Thyroid hormone receptor beta (Homo sapiens, UniProt P10828); assay: Binding affinity of compound was determined against thyroid hormone receptor beta 1
T1 sequence (P10828 whole entry): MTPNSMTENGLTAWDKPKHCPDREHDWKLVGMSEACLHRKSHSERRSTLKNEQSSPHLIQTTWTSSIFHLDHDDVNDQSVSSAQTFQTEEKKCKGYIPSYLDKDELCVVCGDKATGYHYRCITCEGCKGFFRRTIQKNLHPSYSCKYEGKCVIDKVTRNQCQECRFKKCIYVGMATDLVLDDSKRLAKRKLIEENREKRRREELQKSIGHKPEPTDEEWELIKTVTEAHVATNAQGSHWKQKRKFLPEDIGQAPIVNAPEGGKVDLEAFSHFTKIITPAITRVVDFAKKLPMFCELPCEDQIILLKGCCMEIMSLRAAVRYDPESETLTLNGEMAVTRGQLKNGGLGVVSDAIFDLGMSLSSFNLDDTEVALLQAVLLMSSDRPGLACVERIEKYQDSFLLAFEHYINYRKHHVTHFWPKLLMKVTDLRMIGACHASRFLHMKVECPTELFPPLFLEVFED

[2] = biological target: T2, Thyroid hormone receptor alpha (Homo sapiens, UniProt P10827); assay: Binding affinity of compound was determined against Thyroid hormone receptor alpha1
T2 sequence (P10827 whole entry): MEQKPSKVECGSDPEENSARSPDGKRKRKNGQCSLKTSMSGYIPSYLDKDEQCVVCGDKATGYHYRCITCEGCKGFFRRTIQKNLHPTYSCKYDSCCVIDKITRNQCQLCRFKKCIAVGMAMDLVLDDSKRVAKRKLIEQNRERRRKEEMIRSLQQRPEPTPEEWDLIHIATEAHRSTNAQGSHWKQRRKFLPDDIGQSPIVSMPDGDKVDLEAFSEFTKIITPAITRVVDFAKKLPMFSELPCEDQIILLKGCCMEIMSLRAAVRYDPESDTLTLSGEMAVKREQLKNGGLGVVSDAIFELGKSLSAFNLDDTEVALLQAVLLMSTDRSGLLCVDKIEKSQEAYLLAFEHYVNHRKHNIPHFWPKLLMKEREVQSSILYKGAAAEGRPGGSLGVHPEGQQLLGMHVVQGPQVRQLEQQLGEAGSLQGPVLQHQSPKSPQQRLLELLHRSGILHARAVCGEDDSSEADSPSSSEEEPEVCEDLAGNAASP

Row | Kd [1] [nM] | Kd [2] [nM] | Compound
1 | 6.2 | 8.5 | Cc1cc(C[C@H](N)C(=O)O)cc(C)c1Oc1ccc(O)c(C(C)C)c1
2 | 1.26 | 2.02 | Cc1cc(C[C@H](N)C(=O)O)cc(C)c1Cc1ccc(O)c(C(C)C)c1
3 | 0.36 | 2.4 | Cc1cc(OCC(=O)O)cc(C)c1Oc1ccc(O)c(C(C)C)c1

Row | Compound | Kd [1] [nM] | Kd [2] [nM]
4 | Cc1cc(CCC(=O)O)cc(C)c1Cc1ccc(O)c(C(C)C)c1 | 0.22 | 0.69
